According to PubChem BioAssay AID1963982 (Molecular Pharmacology Branch, DTP, NCI, 2024):
Values belong to the compound of their own block, whether it stands above or below them.

System: 313798-341-R-J2-PDC spheroids, viability
Assay: Anticancer human tumor 313798-341-R-J2-PDC patient-derived cervical squamous cell carcinoma cell line growth inhibition [PI3K]
Details: spheroids with HUVEC and MSC; for IC50: curve of first compound; for viability, T/C: stronger effect = lower value
Method in brief: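 Spheroid viability read-out. Co-cultures contained the tumor line plus HUVEC and human MSCs. Each agent was paired with a PI3K inhibitor (inavolisib, alpelisib, duvelisib, copanlisib) across half-log dilutions starting at clinical Cmax, or at 10 microM when Cmax was unknown.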

[1] = second compound 0.00316 µM, first compound 0.0316 µM
[2] = second compound 0.00316 µM, first compound 0.1 µM
[3] = second compound 0.00316 µM, first compound 0.316 µM
[4] = second compound 0.00316 µM, first compound 1 µM
[5] = second compound 0.00316 µM, first compound 3.16 µM
[6] = second compound 0.00316 µM, first compound 10 µM
[7] = second compound 0.01 µM, first compound 0.0316 µM
[8] = second compound 0.01 µM, first compound 0.1 µM
[9] = second compound 0.01 µM, first compound 0.316 µM
[10] = second compound 0.01 µM, first compound 1 µM
[11] = second compound 0.01 µM, first compound 3.16 µM
[12] = second compound 0.01 µM, first compound 10 µM
[13] = second compound 0.0316 µM, first compound 0.0316 µM
[14] = second compound 0.0316 µM, first compound 0.1 µM
[15] = second compound 0.0316 µM, first compound 0.316 µM
[16] = second compound 0.0316 µM, first compound 1 µM
[17] = second compound 0.0316 µM, first compound 3.16 µM
[18] = second compound 0.0316 µM, first compound 10 µM
[19] = second compound 0.1 µM, first compound 0.0316 µM
[20] = second compound 0.1 µM, first compound 0.1 µM
[21] = second compound 0.1 µM, first compound 0.316 µM
[22] = second compound 0.1 µM, first compound 1 µM
[23] = second compound 0.1 µM, first compound 3.16 µM
[24] = second compound 0.1 µM, first compound 10 µM
[25] = second compound 0.316 µM, first compound 0.0316 µM
[26] = second compound 0.316 µM, first compound 0.1 µM
[27] = second compound 0.316 µM, first compound 0.316 µM
[28] = second compound 0.316 µM, first compound 1 µM
[29] = second compound 0.316 µM, first compound 3.16 µM
[30] = second compound 0.316 µM, first compound 10 µM
[31] = second compound 1 µM, first compound 0.0316 µM
[32] = second compound 1 µM, first compound 0.1 µM
[33] = second compound 1 µM, first compound 0.316 µM
[34] = second compound 1 µM, first compound 1 µM
[35] = second compound 1 µM, first compound 3.16 µM
[36] = second compound 1 µM, first compound 10 µM
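Further: spheroids exposed to compounds for seven days.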
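Wherever viability, T/C is given: 100% = DMSO vehicle control viability.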

- IC50 (second compound 0.00316 µM): 6100 nM
- IC50 (second compound 0.01 µM): 5990 nM
- IC50 (second compound 0.0316 µM): 5160 nM
- IC50 (second compound 0.1 µM): 110 nM
- IC50 (second compound 0.316 µM): < 31.6 nM
- IC50 (second compound 1 µM): < 31.6 nM
SMILES: CCCS(=O)(=O)Nc1ccc(F)c(C(=O)c2c[nH]c3ncc(-c4ccc(Cl)cc4)cc23)c1F + COc1c(OCCCN2CCOCC2)ccc2c3n(c(=NC(=O)c4cnc(N)nc4)nc12)CCN3
- viability, T/C [1]: 109%
- viability, T/C [2]: 98.6%
- viability, T/C [3]: 99.6%
- viability, T/C [4]: 92.3%
- viability, T/C [5]: 95.5%
- viability, T/C [6]: 15.7%
- viability, T/C [7]: 89.1%
- viability, T/C [8]: 96.2%
- viability, T/C [9]: 103%
- viability, T/C [10]: 98.6%
- viability, T/C [11]: 97.1%
- viability, T/C [12]: 12.5%
- viability, T/C [13]: 68.7%
- viability, T/C [14]: 94.1%
- viability, T/C [15]: 86.5%
- viability, T/C [16]: 83.8%
- viability, T/C [17]: 78.1%
- viability, T/C [18]: 12%
- viability, T/C [19]: 47.9%
- viability, T/C [20]: 54.2%
- viability, T/C [21]: 48.4%
- viability, T/C [22]: 41.4%
- viability, T/C [23]: 33.9%
- viability, T/C [24]: 15.7%
- viability, T/C [25]: 16.7%
- viability, T/C [26]: 18.7%
- viability, T/C [27]: 19.1%
- viability, T/C [28]: 20.5%
- viability, T/C [29]: 22.4%
- viability, T/C [30]: 12.7%
- viability, T/C [31]: 13.2%
- viability, T/C [32]: 12.4%
- viability, T/C [33]: 14.6%
- viability, T/C [34]: 14.3%
- viability, T/C [35]: 19.8%
- viability, T/C [36]: 9.24%

- IC50 (second compound 0.00316 µM): > 10000 nM
- IC50 (second compound 0.01 µM): > 10000 nM
- IC50 (second compound 0.0316 µM): > 10000 nM
- IC50 (second compound 0.1 µM): < 31.6 nM
- IC50 (second compound 0.316 µM): < 31.6 nM
- IC50 (second compound 1 µM): < 31.6 nM
SMILES: CNC(=O)c1ccc(N2C(=S)N(c3ccc(C#N)c(C(F)(F)F)c3)C(=O)C2(C)C)cc1F + COc1c(OCCCN2CCOCC2)ccc2c3n(c(=NC(=O)c4cnc(N)nc4)nc12)CCN3
- viability, T/C [1]: 98.3%
- viability, T/C [2]: 117%
- viability, T/C [3]: 102%
- viability, T/C [4]: 112%
- viability, T/C [5]: 99.8%
- viability, T/C [6]: 87.1%
- viability, T/C [7]: 102%
- viability, T/C [8]: 100%
- viability, T/C [9]: 97.3%
- viability, T/C [10]: 115%
- viability, T/C [11]: 94.7%
- viability, T/C [12]: 96.7%
- viability, T/C [13]: 73.3%
- viability, T/C [14]: 79.2%
- viability, T/C [15]: 73.2%
- viability, T/C [16]: 71.3%
- viability, T/C [17]: 74.1%
- viability, T/C [18]: 62.8%
- viability, T/C [19]: 37.3%
- viability, T/C [20]: 42.9%
- viability, T/C [21]: 39.7%
- viability, T/C [22]: 40.8%
- viability, T/C [23]: 34.9%
- viability, T/C [24]: 31.8%
- viability, T/C [25]: 15.5%
- viability, T/C [26]: 16.6%
- viability, T/C [27]: 13.9%
- viability, T/C [28]: 13.4%
- viability, T/C [29]: 14.8%
- viability, T/C [30]: 12.3%
- viability, T/C [31]: 11.8%
- viability, T/C [32]: 9.64%
- viability, T/C [33]: 11.3%
- viability, T/C [34]: 9.53%
- viability, T/C [35]: 9.76%
- viability, T/C [36]: 8.76%

- IC50 (second compound 0.00316 µM): > 3000 nM
- IC50 (second compound 0.01 µM): > 3000 nM
- IC50 (second compound 0.0316 µM): 2960 nM
- IC50 (second compound 0.1 µM): < 9.49 nM
- IC50 (second compound 0.316 µM): < 9.49 nM
- IC50 (second compound 1 µM): < 9.49 nM
SMILES: Cn1cnc2c(F)c(Nc3ccc(Br)cc3Cl)c(C(=O)NOCCO)cc21 + COc1c(OCCCN2CCOCC2)ccc2c3n(c(=NC(=O)c4cnc(N)nc4)nc12)CCN3
- viability, T/C (second compound 0.00316 µM, first compound 0.00949 µM): 88%
- viability, T/C (second compound 0.00316 µM, first compound 0.03 µM): 93.1%
- viability, T/C (second compound 0.00316 µM, first compound 0.0949 µM): 95.2%
- viability, T/C (second compound 0.00316 µM, first compound 0.3 µM): 87.6%
- viability, T/C (second compound 0.00316 µM, first compound 0.949 µM): 97.3%
- viability, T/C (second compound 0.00316 µM, first compound 3 µM): 75.7%
- viability, T/C (second compound 0.01 µM, first compound 0.00949 µM): 93.1%
- viability, T/C (second compound 0.01 µM, first compound 0.03 µM): 100%
- viability, T/C (second compound 0.01 µM, first compound 0.0949 µM): 97.3%
- viability, T/C (second compound 0.01 µM, first compound 0.3 µM): 101%
- viability, T/C (second compound 0.01 µM, first compound 0.949 µM): 82%
- viability, T/C (second compound 0.01 µM, first compound 3 µM): 70.3%
- viability, T/C (second compound 0.0316 µM, first compound 0.00949 µM): 84.8%
- viability, T/C (second compound 0.0316 µM, first compound 0.03 µM): 75.5%
- viability, T/C (second compound 0.0316 µM, first compound 0.0949 µM): 75%
- viability, T/C (second compound 0.0316 µM, first compound 0.3 µM): 62.5%
- viability, T/C (second compound 0.0316 µM, first compound 0.949 µM): 73.4%
- viability, T/C (second compound 0.0316 µM, first compound 3 µM): 46.8%
- viability, T/C (second compound 0.1 µM, first compound 0.00949 µM): 45.2%
- viability, T/C (second compound 0.1 µM, first compound 0.03 µM): 35.3%
- viability, T/C (second compound 0.1 µM, first compound 0.0949 µM): 32.3%
- viability, T/C (second compound 0.1 µM, first compound 0.3 µM): 31.6%
- viability, T/C (second compound 0.1 µM, first compound 0.949 µM): 26.4%
- viability, T/C (second compound 0.1 µM, first compound 3 µM): 17.1%
- viability, T/C (second compound 0.316 µM, first compound 0.00949 µM): 12.5%
- viability, T/C (second compound 0.316 µM, first compound 0.03 µM): 9.53%
- viability, T/C (second compound 0.316 µM, first compound 0.0949 µM): 5.72%
- viability, T/C (second compound 0.316 µM, first compound 0.3 µM): 4.75%
- viability, T/C (second compound 0.316 µM, first compound 0.949 µM): 3.32%
- viability, T/C (second compound 0.316 µM, first compound 3 µM): 2.54%
- viability, T/C (second compound 1 µM, first compound 0.00949 µM): 10.1%
- viability, T/C (second compound 1 µM, first compound 0.03 µM): 5.21%
- viability, T/C (second compound 1 µM, first compound 0.0949 µM): 3.78%
- viability, T/C (second compound 1 µM, first compound 0.3 µM): 3.94%
- viability, T/C (second compound 1 µM, first compound 0.949 µM): 2.23%
- viability, T/C (second compound 1 µM, first compound 3 µM): 1%
